Molecules are shown by their SMILES. Entries after “also recorded” stand apart in the source; their conditions may differ. Structures can show the parent of a compound that is named as a salt.

In test [1] the test system is BV-2 cells. The test can be described thus: BV-2 phagocytosis assay with apoptotic N2A bait cells (CypHer5). The format is cell-based, mouse. Conditions: metabolite cocktail plus CH223191 5 uM. An excerpt:
FIG. 32. Outline of phagocytosis assay in BV-2 cells. Briefly, apoptotic N2A cells (“bait”) are generated by UV irradiation and loaded with the pH sensitive dye CypHer5 before co-culture with Hoechst stained BV-2 cells. After washing, BV-2 cells are the collected and analyzed by flow cytometry.
FIG. 33. […] Each bar is the average of 4 separate wells +/−SEM. P-vales calculated using two-way ANOVA.
Finally, we asked whether treatment with metabolites altered the ability of BV-2 microglia to engulf apoptotic N2A cells as outlined above. In this assay the phagocytes (in this case BV-2 cells) are treated with metabolites or vehicle for 120 h and then loaded with Hoechest dye. N2A cells are killed with UV radiation (confirmed by staining with viability dyes and Annexin V to distinguish apoptotic from necrotic cells) and then loaded with the pH sensitive dye CypHer5 which only fluoresces in the phagolysosome. They are then fed to BV-2 cells for a predetermined length of time (5:1 ratio of N2A to BV-2, 1 h of eating) before being harvested and analyzed by flow cytometry (FIG. 32).

Test [2] relates to BV-2 cells. Put plainly: AhR blockade of metabolite-induced changes in BV-2 microglia. The format is cell-based, mouse. The settings on record: metabolite cocktail 32 ug/mL each plus CH223191 5 uM, 5 days. The protocol:
FIG. 28. […] Results of AhR blockade on metabolite-induced proliferation and cell surface profile changes in BV-2 microglia. BV-2 cells were treated with vehicle (DMSO), metabolite cocktail (32 ug/mL of each metabolite), or metabolite cocktail with the AhR inhibitor CH223191 (5 uM final concentration in DMSO) for 5 days before performing the same analysis as in slide 5 (CSF1R and F4/80 or Ki67 staining). While the increase in F4/80 and CSF1R intensity is dependent on intact AhR signaling (top row), AhR signaling is dispensable for metabolite-induced proliferation (bottom row). Each bar is the average of 4 separate wells+/−SEM. P-vales calculated using two-way ANOVA.

The subject of test [3] is BV-2 immortalized mouse microglia. Put plainly: Metabolite time course in BV-2 microglia (Ki67 proliferation, CSF1R and F4/80 surface staining). The format is cell-based. Conditions: BV-2 cells, 32 ug/mL of each compound; for proliferation (percent Ki67+ cells): 5 days (120 h); for CSF1R cell surface staining intensity (MFI) / F4/80 cell surface staining intensity (MFI): 5 days. The protocol:
FIG. 26. Representation of the outline of metabolite time course experiment utilizing BV-2 immortalized mouse microglia. BV-2 cells are plated with either media alone, or with a cocktail of the 4 metabolites identified in slide 1 at a final concentration of 32 ug/mL of each compound at the indicated time points. Cells are then harvested and stained using conventional methods for either cell surface markers or the proliferation marker Ki67.
FIG. 27. Metabolite treatment increases proliferative capacity and alters the cell surface profile of BV-2 cells. Results of metabolite time course in BV-2 cells. […] Each bar is the average of 4 separate wells+/−SEM. P-vales calculated using two-way ANOVA.
FIG. 29. […] In order to test the ability of the AhR ligand indoxyl sulfate in BV-2 microglia, cells were treated for 5 days with either a cocktail of metabolites or with indoxyl sulfate (32 ug/mL of all compounds tested). […] Each bar is the average of 4 separate wells+/−SEM. P-vales calculated using two-way ANOVA.
Purified cultures, or immortalized equivalents were used. The cells were treated with a cocktail of the 4 metabolites to evaluate microglial response to metabolite treatment (FIG. 26). […] There is a relatively linear effect with increasing proportions of proliferation or F4/80, CSF1R high cells with increasing exposure to the metabolite cocktail.
We next asked if individual metabolites were responsible for the biological activity of the metabolite cocktail or whether multiple metabolites were required.

On to `Cc1ccccc1N=Nc1ccc(NC(=O)c2ccnn2C)c(C)c1` [CH223191], for which the “metabolite-induced phagocytosis under AhR inhibition” value in the test on BV-2 cells [1] is reported as “significance is abolished”. The “metabolite-induced phagocytosis under AhR inhibition” value with BV-2 cells [1] (listed as Met+CH) is “NOT dependent on AhR signaling”. Also, in the test on BV-2 cells [2], the “metabolite-induced increase in CSF1R intensity under AhR inhibition” value is “required for the upregulation of CSF1R and F4/80; also recorded: reduces metabolite induced changes in surface markers”; the “metabolite-induced increase in F4/80 intensity under AhR inhibition” value was “required for the upregulation of CSF1R and F4/80; also recorded: reduces metabolite induced changes in surface markers”; the “metabolite-induced proliferation (Ki67) under AhR inhibition” value is given as “dispensable for enhancement of proliferation; also recorded: does not change proliferation”.

As to `O=S(=O)(O)Oc1c[nH]c2ccccc12` [indoxyl sulfate], in test [3], the “proliferation (percent Ki67+ cells)” value is recorded as “nor does it increase the proliferative capacity”, the “CSF1R cell surface staining intensity (MFI)” value is given as “does not increase CSF1R or F4/80 protein staining intensity” and the “F4/80 cell surface staining intensity (MFI)” value is on record as “does not increase CSF1R or F4/80 protein staining intensity”. In test [3] (listed as IS), the “proliferation (percent Ki67+ cells)” value is on record as “unable to significantly change either cell surface levels of F4/80 or CSF1R or to increase proliferation”, the “CSF1R cell surface staining intensity (MFI)” value is on record as “unable to significantly change” and the “F4/80 cell surface staining intensity (MFI)” value is “unable to significantly change”.

The values are drawn from patent US20230026402A1, “MICROBIOTA BASED THERAPIES TO PROMOTE MENTAL HEALTH” (Cornell University, priority 2019, published 2023).
